According to ChEMBL document CHEMBL1687875, “Flavonoids from eight tropical plant species that inhibit the multidrug resistance transporter ABCG2” (J Nat Prod, 2011):
pIC50: −log10 of the molar value.

Target: T1, Broad substrate specificity ATP-binding cassette transporter ABCG2 (Homo sapiens, UniProt Q9UNQ0)
T1 sequence (Q9UNQ0 whole entry): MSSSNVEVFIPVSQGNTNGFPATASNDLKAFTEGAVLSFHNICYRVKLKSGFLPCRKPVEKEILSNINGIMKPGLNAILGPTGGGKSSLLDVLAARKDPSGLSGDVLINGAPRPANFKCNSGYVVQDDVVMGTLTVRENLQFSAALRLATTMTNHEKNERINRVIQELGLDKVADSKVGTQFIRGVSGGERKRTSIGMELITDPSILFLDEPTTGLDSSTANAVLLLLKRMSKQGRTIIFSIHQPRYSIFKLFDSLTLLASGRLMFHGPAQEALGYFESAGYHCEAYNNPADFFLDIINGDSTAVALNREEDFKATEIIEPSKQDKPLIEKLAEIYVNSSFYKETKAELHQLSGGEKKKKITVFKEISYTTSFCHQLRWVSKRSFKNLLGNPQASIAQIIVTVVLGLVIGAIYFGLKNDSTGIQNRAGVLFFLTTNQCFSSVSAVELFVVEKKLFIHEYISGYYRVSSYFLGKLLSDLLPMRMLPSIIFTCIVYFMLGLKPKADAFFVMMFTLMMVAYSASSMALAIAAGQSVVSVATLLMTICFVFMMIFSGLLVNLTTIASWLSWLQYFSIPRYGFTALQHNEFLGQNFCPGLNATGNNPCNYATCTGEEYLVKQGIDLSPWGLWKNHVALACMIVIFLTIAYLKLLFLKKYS
Test: Inhibition of ABCG2 expressed in human NCI-H460 cells assessed as increase in PhA accumulation after 2 to 20 hrs relative to fumitremorgin C

Compound | pIC50
COc1ccc2c3c([nH]c2c1)[C@H](C=C(C)C)N1C(=O)[C@@H]2CCCN2C(=O)[C@@H]1C3 [FUMITREMORGIN] | 6.10
CC(C)=CCc1c(O)cc(O)c2c1O[C@H](c1ccc(O)cc1)CC2=O | 5.51
COc1cc(O)c2c(=O)c(OC)c(-c3ccc(OC)c(O)c3)oc2c1 [AYANIN] | 5.24
O=c1cc(-c2ccc(O)c(O)c2)oc2cc(O)cc(O)c12 [LUTEOLIN] | 5.05
C/C(=C/Cc1c(-c2cc(O)c(O)cc2O)oc2c3c(cc(O)c2c1=O)OC(C)(C)C=C3)CO | 5.19
CC(C)=CCc1c(O)c(CC=C(C)C)c2c(c1O)C(=O)C[C@@H](c1cc(O)cc(O)c1)O2 | 5.39
CC(C)=CCC/C(C)=C/Cc1c(O)cc(O)c2c1O[C@H](c1ccc(O)cc1)CC2=O [SOPHORAFLAVANONE A] | 4.91
COc1ccc([C@@H]2CC(=O)c3c(O)cc(O)c(CC=C(C)C)c3O2)cc1 | 4.65

More lines, now with the values ahead:

pIC50 | Compound
5.18 | COc1ccc([C@@H]2CC(=O)c3c(O)cc(O)c(CC=C(C)C)c3O2)cc1O
5.08 | COc1cc(O)c(CC=C(C)C)c(-c2oc3cc(O)cc(O)c3c(=O)c2OC)c1
4.76 | COc1cc(O)c2c(=O)c(OC)c(-c3ccc(O)c(OC)c3)oc2c1 [PACHYPODOL]
4.81 | CC(C)=CCC/C(C)=C/Cc1c(O)cc(O)c2c1O[C@H](c1cc(O)cc(O)c1)CC2=O
5.24 | CC(C)=CCC/C(C)=C/Cc1c(O)cc2oc(-c3ccc(O)cc3)c(O)c(=O)c2c1O [MACARANGIN]
